Settings: 1.0% DMSO, 24-hour incubation at ambient temperature, maximum theoretical 100 μM; for pH 2 solubility: 0.1N HCl, first value of the cell; for pH 7 solubility: 1×PBS buffer (pH 7.4), second value of the cell

pH 2 solubility	pH 7 solubility	SMILES
39 μM	9 μM	CC(C)(C#Cc1ccc(-c2ccc(Cl)c3c(N(C(=O)CCN4CCOCC4)S(C)(=O)=O)nn(CC(F)(F)F)c23)c([C@H](Cc2cc(F)cc(F)c2)NC(=O)Cn2nc(C(F)(F)F)c3c2C(F)(F)[C@@H]2C[C@H]32)n1)S(C)(=O)=O [Compound 5, N-(4-chloro-7-(2-((S)-1-(2-((3bS,4aR)-5,5-difluoro-3-(trifluoromethyl)-3b,4,4a,5-tetrahydro-1H-cyclopropa [3,4]cyclopenta [1,2-c]pyrazol-1-yl)acetamido)-2-(3,5-difluorophenyl)ethyl)-6-(3-methyl-3-(methylsulfonyl)but-1-yn-1-yl)pyridin-3-yl)-1-(2,2,2-trifluoroethyl)-1H-indazol-3-yl)-N-(methylsulfonyl)-3-morpholinopropanamide]
33 μM	42 μM	CC(C)(C#Cc1ccc(-c2ccc(Cl)c3c(N(C(=O)OCCCS(=O)(=O)O)S(C)(=O)=O)nn(CC(F)(F)F)c23)c([C@H](Cc2cc(F)cc(F)c2)NC(=O)Cn2nc(C(F)(F)F)c3c2C(F)(F)[C@@H]2C[C@H]32)n1)S(C)(=O)=O [Compound 111, 3-(((4-chloro-7-(2-((S)-1-(2-((3bS,4aR)-5,5-difluoro-3-(trifluoromethyl)-3b,4,4a,5-tetrahydro-1H-cyclopropa[3,4]cyclopenta[1,2-c]pyrazol-1-yl)acetamido)-2-(3,5-difluorophenyl)ethyl)-6-(3-methyl-3-(methylsulfonyl)but-1-yn-1-yl)pyridin-3-yl)-1-(2,2,2-trifluoroethyl)-1H-indazol-3-yl)(methylsulfonyl)carbamoyl)oxy)propane-1-sulfonic acid]
1 μM	58 μM	CC(C)(C#Cc1ccc(-c2ccc(Cl)c3c(N(C(=O)N[C@H](CC(=O)O)C(=O)O)S(C)(=O)=O)nn(CC(F)(F)F)c23)c([C@H](Cc2cc(F)cc(F)c2)NC(=O)Cn2nc(C(F)(F)F)c3c2C(F)(F)[C@@H]2C[C@H]32)n1)S(C)(=O)=O [Compound 70, ((4-chloro-7-(2-((S)-1-(2-((3bS,4aR)-5,5-difluoro-3-(trifluoromethyl)-3b,4,4a,5-tetrahydro-1H-cyclopropa[3,4]cyclopenta[1,2-c]pyrazol-1-yl)acetamido)-2-(3,5-difluorophenyl)ethyl)-6-(3-methyl-3-(methylsulfonyl)but-1-yn-1-yl)pyridin-3-yl)-1-(2,2,2-trifluoroethyl)-1H-indazol-3-yl)(methylsulfonyl)carbamoyl)-D-aspartic acid]
29 μM	1 μM	CC(C)[C@H](N)C(=O)OCN(c1nn(CC(F)(F)F)c2c(-c3ccc(C#CC(C)(C)S(C)(=O)=O)nc3[C@H](Cc3cc(F)cc(F)c3)NC(=O)Cn3nc(C(F)(F)F)c4c3C(F)(F)[C@@H]3C[C@H]43)ccc(Cl)c12)S(C)(=O)=O [Compound 28, (N-(4-chloro-7-(2-((S)-1-(2-((3bS,4aR)-5,5-difluoro-3-(trifluoromethyl)-3b,4,4a,5-tetrahydro-1H-cyclopropa[3,4]cyclopenta[1,2-c]pyrazol-1-yl)acetamido)-2-(3,5-difluorophenyl)ethyl)-6-(3-methyl-3-(methylsulfonyl)but-1-yn-1-yl)pyridin-3-yl)-1-(2,2,2-trifluoroethyl)-1H-indazol-3-yl)methylsulfonamido)methyl L-valinate]
1/1 μM	1/1 μM	CC(C)(C#Cc1ccc(-c2ccc(Cl)c3c(N(C(=O)OCCO)S(C)(=O)=O)nn(CC(F)(F)F)c23)c([C@H](Cc2cc(F)cc(F)c2)NC(=O)Cn2nc(C(F)(F)F)c3c2C(F)(F)[C@@H]2C[C@H]32)n1)S(C)(=O)=O [Compound 99, 2-hydroxyethyl (4-chloro-7-(2-((S)-1-(2-((3bS,4aR)-5,5-difluoro-3-(trifluoromethyl)-3b,4,4a,5-tetrahydro-1H-cyclopropa[3,4]cyclopenta[1,2-c]pyrazol-1-yl)acetamido)-2-(3,5-difluorophenyl)ethyl)-6-(3-methyl-3-(methylsulfonyl)but-1-yn-1-yl)pyridin-3-yl)-1-(2,2,2-trifluoroethyl)-1H-indazol-3-yl)(methylsulfonyl)carbamate]
16 μM	13 μM	CN(CCNC(=N)N)C(=O)N(c1nn(CC(F)(F)F)c2c(-c3ccc(C#CC(C)(C)S(C)(=O)=O)nc3[C@H](Cc3cc(F)cc(F)c3)NC(=O)Cn3nc(C(F)(F)F)c4c3C(F)(F)[C@@H]3C[C@H]43)ccc(Cl)c12)S(C)(=O)=O [Compound 75, N—((S)-1-(3-(4-chloro-3-(N-((2-guanidinoethyl)(methyl)carbamoyl)methylsulfonamido)-1-(2,2,2-trifluoroethyl)-1H-indazol-7-yl)-6-(3-methyl-3-(methylsulfonyl)but-1-yn-1-yl)pyridin-2-yl)-2-(3,5-difluorophenyl)ethyl)-2-((3bS,4aR)-5,5-difluoro-3-(trifluoromethyl)-3b,4,4a,5-tetrahydro-1H-cyclopropa[3,4]cyclopenta[1,2-c]pyrazol-1-yl)acetamide]
5 μM	36 μM	CC(C)(C#Cc1ccc(-c2ccc(Cl)c3c(N(C(=O)C(=O)NCCP(=O)(O)O)S(C)(=O)=O)nn(CC(F)(F)F)c23)c([C@H](Cc2cc(F)cc(F)c2)NC(=O)Cn2nc(C(F)(F)F)c3c2C(F)(F)[C@@H]2C[C@H]32)n1)S(C)(=O)=O [Compound 11, (2-(2-(N-(4-chloro-7-(2-((S)-1-(2-((3bS,4aR)-5,5-difluoro-3-(trifluoromethyl)-3b,4,4a,5-tetrahydro-1H-cyclopropa[3,4]cyclopenta[1,2-c]pyrazol-1-yl)acetamido)-2-(3,5-difluorophenyl)ethyl)-6-(3-methyl-3-(methylsulfonyl)but-1-yn-1-yl)pyridin-3-yl)-1-(2,2,2-trifluoroethyl)-1H-indazol-3-yl)methylsulfonamido)-2-oxoacetamido)ethyl)phosphonic acid]
1/1 μM	1/1 μM	CC(C)(O)CNC(=O)N(c1nn(CC(F)(F)F)c2c(-c3ccc(C#CC(C)(C)S(C)(=O)=O)nc3[C@H](Cc3cc(F)cc(F)c3)NC(=O)Cn3nc(C(F)(F)F)c4c3C(F)(F)[C@@H]3C[C@H]43)ccc(Cl)c12)S(C)(=O)=O [Compound 32, N—((S)-1-(3-(4-chloro-3-(N-((2-hydroxy-2-methylpropyl)carbamoyl)methylsulfonamido)-1-(2,2,2-trifluoroethyl)-1H-indazol-7-yl)-6-(3-methyl-3-(methylsulfonyl)but-1-yn-1-yl)pyridin-2-yl)-2-(3,5-difluorophenyl)ethyl)-2-((3bS,4aR)-5,5-difluoro-3-(trifluoromethyl)-3b,4,4a,5-tetrahydro-1H-cyclopropa[3,4]cyclopenta[1,2-c]pyrazol-1-yl)acetamide]

Source: patent US12404262B2 (priority 2021, dated 2025)
